# Source: patent US9622469B2, “Crosslink breakers for preservation of biological substances” (priority 2013, dated 2017)
# Entries after “also recorded” stand apart in the source; their conditions may differ. Marks after values point to notes of the source that are not given here.
# Key:
# [1] = Cleavage of PPD (3) to benzoic acid by NHC precursors, Method B (MeCN co-solvent); format: biochemical
# Description: Dicarbonyl cleavage reactions were performed using either the method described in Vasan et al., An agent cleaving glucose-derived protein crosslinks in vitro and in vivo, Nature (1996) Vol. 382, pp. 275-278 (Method A) or a modified method with MeCN as a co-solvent (Method B).
# (§1) 60 mM solution of dicarbonyl substrate (45 μmol) in MeCN (0.75 ml) was added to 20 mM solution of NHC (15 μmol) in 0.15 M pH 7.4 sodium phosphate buffer (0.75 ml) and kept stirred at 37° C. At stated times, 75 μl aliquots were taken, diluted with 50% MeCN/H2O (425 μl) and analyzed by LCMS with 2,4-dihydroxyquinoline (248 μM) as an internal standard. The cleavage products were quantified by peak integration against the calibration curves.
# Thus, our first goal in these studies was to assess the ability of various NHC precursors to induce the degradation of the dicarbonyl model substrate (PPD, 3). To this end, we screened the thiazolium (4-6), benzothiazolium (7), triazolium (8,9) and imidazolium (10) halide substructures shown in Table 1.
# [2] = NHC-mediated cleavage of bis-alkyl diketone 14, Method B; format: biochemical; conditions: LCMS, with respect to dicarbonyl
# Description: as §1
# (§2) Our efforts to investigate the scope of thiazolium salt-mediated reactions with dicarbonyls began with bis-alkyl diketone 14 (Table 3, Entry 1). This substrate is cleaved cleanly by 2, and affords acid 18 in 82% yield. NHC precursor 4, on the other hand, provides 18 in only 14% yield (Entry 2). The efficiency of dicarbonyl cleavage reactions decreases substantially in the case of benzil (15, Entry 3), which affords benzoic acid in 14% and 1% yield following exposure to 2 and 4, respectively.
# [3] = NHC-mediated cleavage of benzil (15), Method B; format: biochemical; conditions: LCMS, with respect to dicarbonyl
# Description: as §1, §2
# [4] = NHC-mediated reaction with α-keto aldehyde phenylglyoxal (16), Method B; format: biochemical; conditions: isolated yield with respect to 2
# Description: as §1
# Phenylglyoxal hydrate (16; 114 mg, 0.75 mmol, 2 eq) was added to a solution of ALT-711 (2; 100 mg, 0.37 mmol) in 50% MeCN/0.15 M pH 7.4 phosphate buffer (total vol. 37 ml) and kept stirred at room temperature for 15 mins. The reaction mixture was cooled to −20° C. to precipitate out sodium phosphate as white crystals. The supernatant was transferred, and the residue was washed with MeCN and combined with the supernatant. This yellow clear solution was concentrated at room temperature to remove MeCN and purified by HPLC (16-27MeCN over 31 min). […]
# Reactions involving α-keto aldehyde derivatives 16 and 17 followed an unexpected course. Treatment of these substrates with 2 led to instantaneous, high-yield production of a diastercomeric mixture of cycloadducts (19 and 20) that decompose to complex mixtures under the reaction conditions with half-lives of approximately 3 h Structures were determined based on in-depth NMR analysis (see Supplementary Material).
# [5] = Stability studies of NHC precursors under the PPD cleavage reaction conditions; format: physicochemical; conditions: exposure to PPD, Method B conditions
# Excerpt: Instead, 7 gave rise predominantly to an oxalamide derivative, which is believed to form via dimerization and oxidation of intermediate carbenes. […] Stability studies afforded additional insights.
# In cleavage of PPD with ALT-711 (2), we detected several decomposition products of the catalyst that appear to be adducts between 2 and an acetyl group, the remainder of PPD following the release of benzoic acid. One adduct that has been isolated and characterized explains why the concentration of ALT-711 diminishes after cleaving PPD while the benzyl counterpart (4) behaves as a stable catalyst. Instead of liberating acetaldehyde and re-entering the catalytic cycle, oxidation of alcohol 13 to the corresponding methyl ketone followed by an aldol condensation with the phenyl ketone gives rise to a thiazolopyridinium derivative (see Supplementary Material for details).
# [6] = test system: mouse RBC; assay: Storage of leukoreduced mouse blood in CPDA-1 at 4° C.: hemolysis and intact RBC count; format: cell-based; conditions: CPDA-1 buffer; for RBC viability / intact RBCs (hemocytometer): 13 days
# Description: FIG. 1 illustrates OCR6043-mediated prolonging of the integrity of stored RBCs. Leuko reduced mouse blood was stored under FDA-approved storage conditions (CPDA-1 buffer at 4° C.) for up to 13 days, in either OCR6043, control compound (structurally similar to OCR6043, but nonfunctional as a AGE crosslink breaker), or without any additive.
# This solution was stored at 4° C. according to FDA-approved conditions for 13 days. […] The steps to collect HOD blood from mice and the addition of the FDA-approved storage buffer CPDA are described in Hendrickson et al., Transfusion of fresh murine red blood cells reverses adverse effects of older stored red blood cells, Transfusion (2011) Vol. 12, pp. 2695-2702.
# We also counted the intact RBCs using a hemocytometer after 13 days of storage as also depicted in FIG. 1.
# [7] = test system: stored mouse blood; assay: Glucose in serum of stored mouse blood (glucose oxidase enzymatic assay); format: cell-based; conditions: typical storage conditions, up to 14 days
# Description: (§3) Leuko-reduced mouse blood was stored under typical storage conditions for up to 14 days, in either OCR6043, control compound, or without any treatment. FIG. 2A illustrates an analysis of glucose in the serum from the stored blood was evaluated using a glucose oxidase enzymatic assay. […] FIG. 2B illustrates the AGE precursor levels on RBCs were measured using a dicarbonyl-specific fluorophore that was developed in-house. The time dependent increase in the AGE precursor levels was dampened in the presence of OCR6043. FIG. 2C illustrates mouse blood that was stored for 14 days, was evaluated for its immunogenicity upon transfusion, by testing for IgGs against an alloantigen on the RBCs (HOD=HEL-OVA-Duffy).
# [8] = test system: HOD alloantigen on stored RBCs; assay: Immunogenicity of stored blood upon transfusion (anti-HOD IgG ELISA); format: in vivo, mouse; conditions: blood stored 14 days, transfused into B6 mice, 14 days following transfusion
# Description: as §3
# OCR6043 treatment decreases immunogenicity, and enhances post-transfusion recovery of stored mouse blood. Leukoreduced mouse blood was stored under typical storage conditions for up to 14 days in either OCR6043 or without any treatment. This mouse blood was evaluated for its immunogenicity upon transfusion by testing for IgGs against an alloantigen on the RBCs (HOD=HEL-OVA-Duffy).
# As described herein, the stored blood has an HOD marker allowing facile detection after transfusion. We transfused […] of stored blood into B6 mice (not expressing the HOD antigen). […] The anti-HOD IgG response was evaluated using standard ELISA techniques described in Hendrickson et at.
# [9] = test system: circulating stored RBCs; assay: Post-transfusion recovery of stored RBCs (flow cytometry); format: in vivo, mouse; conditions: blood stored 14 days; 24 hours after transfusion; listed as OCR6043
# Description: as §3
# Using the transfusion methodology described in Hendrickson et al., it was possible to identify the surviving circulating RBCs using flow cytometry.
# [10] = rats; cited from earlier work
structure (smiles),measurement,setting,value
Cc1sc[n+](CC(=O)c2ccccc2)c1C.[Cl-] [Compound 2],Benzoic acid formation from 3 (in words),[1]; Method B screen of NHC precursors,highest overall yield
same,Combined % Yield (PhCO2H),"[1]; co-solvent MeCN, Method B, LCMS, with respect to dicarbonyl",61%
same,% Yield of acid 18 from substrate 14,[2],82%
same,% Yield of PhCO2H from substrate 15 (benzil),[3],14%
same,% Yield of cycloadduct 19 from substrate 16,[4],55^b %
same,Stability of NHC precursor under the reaction conditions,[5],disappear from solution
same,RBC viability / intact RBCs (hemocytometer),[6]; listed as ALT-711,higher levels of intact RBCs
same,RBC viability / intact RBCs (hemocytometer),[6]; listed as OCR6043,superior cell viability
same,Hemolysis of stored blood (supernatant appearance),"[6]; up to 13 days, 12 mM",unhemolyzed
same,Glucose levels in serum of stored blood,[7],more effective preservation of glucose levels
same,Immunogenicity upon transfusion (IgG against HOD alloantigen),[8]; listed as ALT-711,lower immunogenicity
same,Immunogenicity upon transfusion (IgG against HOD alloantigen),[8]; listed as OCR6043,decreased immunogenicity; also recorded: attenuated this immune response
same,Cell survival of transfused stored RBCs versus untreated stored blood,[9],two-fold increase; also recorded: twofold increase
same,MGO levels and MGO-induced glucose intolerance,[10],lowered MOO levels and attenuated MOO-induced glucose intolerance
